How the values of data set [1] were obtained: Moreover, it is preferred that the reaction is carried out over a period of 5 minutes to 4 hours, preferably up to 120 minutes and in particular up to 60 minutes. Suitable reaction temperatures are in the range of from 0 to 80° C., preferably 10 to 40° C. and in particular 20 to 30° C. If appropriate, the stabilizer solution obtained after the reaction can be filtered in order to remove troublesome solid components.

A short description of data set [2]: Stabilization of Kathon 39 FG / bromo-2-nitropropane-1,3-diol basic preparation: appearance and pH on storage. The protocol:
A basic preparation which contained 88.34% of purified water, 6.00% of bromo-2-nitropropane-1,3-diol and 5.66% of Kathon 39 FG was made. […] Kathon 39 FG is a mixture of CMI and MI prepared with solvent and a low salt and water content (available from Rohm & Haas Company). Thereafter, 100 g of the basic preparation were brought to a pH of 5.16 with triethanolamine (preparation A) and with imidazole to a pH of 5.32 (preparation B). Preparation C was prepared with the addition of 0.1% of pyrion disulphide to 100 g of the basic preparation. The basic preparation D (without addition) acted as reference. The appearance of a freshly made preparation and the appearance as affected by increasing storage times were examined. In addition, the pH of all preparations was tested after 35 days.

Where two headings read alike, the source gives them in different places.

Consider `[O-][n+]1ccccc1SSc1cccc[n+]1[O-]` [pyrion disulphide, 2,2′-dithiobis(pyridine N-oxide)], for which the solubility in water in data set [1] was 0.9 % by weight. The “stabilization of aqueous CMI/MI-based preparation containing 6.00% of bromo-2-nitropropane-1,3-diol” value in data set [2] is on record as “improved”.

With `c1c[nH]cn1` [imidazole], the “stabilization of aqueous CMI/MI-based preparation containing 6.00% of bromo-2-nitropropane-1,3-diol” value in data set [2] (additive to the basic preparation, versus basic preparation D) is recorded as “stabilizing effect on the composition, albeit to a lesser extent”.
